Values of other authors as cited in publication PMC12642135 (Food and Waterborne Parasitology, 2025).
“Also recorded” adds a separate entry of the source.

Test system: Toxoplasma gondii
Design: method as in Kul et al., 2013
Settings: lambs, applied from the second week pi (day 14 pi) onwards; ref Kul et al., 2013

Question: Which “Reduction of tissue cysts” value does the source give for `Cc1cc(-n2c(=O)[nH]c(=O)n(C)c2=O)ccc1Oc1ccc(SC(F)(F)F)cc1` [toltrazuril] here?
Answer: The value was “mildly reduced; also recorded: partial reduction”.
